From US20070010664A1, “Gene expression in the central nervous system regulated by neuroleptic agents” (priority 2001, published 2007)

Experiments:
apoD mRNA [1] = test: apoD mRNA expression in mouse brain after 5HT2 antagonists (preliminary results); assay type: in vivo
[2] = tested on: CLZ_44 (SEQ ID NO:38) mRNA; test: Northern blot analysis of CLZ_44 in striatum/nucleus accumbens; assay type: in vivo, mouse; conditions: 2 weeks of treatment; clozapine 7.5 mg/kg, haloperidol 4 mg/kg, ketanserin 4 mg/kg
Procedure: FIG. 39 is a graphical representation of a Northern Blot analysis of clone CLZ—44 (ACGG 352) (SEQ ID NO:38), where an agarose gel containing poly A enriched mRNA from the striatum/nucleus accumbens of clozapine-treated mice as well as size standards was blotted after electrophoresis and probed with radiolabelled CLZ—44.
In further characterization of CLZ—44, Northern blot analyses were performed to determine the pattern of expression in the striatum/nucleus accumbens after 2 weeks of treatment of control mice, clozapine-treated mice, haloperidol-treated mice, and ketanserin-treated mice (FIG. 39). Ketanserin is a 5HT2A/2C—selective antagonist, and is used to determine serotonorgic involvement in these drug effects. FIG. 39 is a graphical representation of the described northern blot analyses.

[3] = tested on: CLZ_40 (SEQ ID NO:12) mRNA; test: Real Time PCR validation of CLZ_40; assay type: in vivo, mouse; conditions: mice chronically (2 weeks) treated
Excerpt: Validation of the DST expression for select DSTs was done by Real Time PCR using the ABI PRISM 7700 Sequence Detection System (PE Biosystems) that combines PCR, cycle-by-cycle fluorescence detection and analysis software for high-throughput quantitation of nucleic acid sequences. […] Standards for normalizing the quantitation of gene levels were chosen from a panel of 5 mouse “housekeeping” genes.

[4] = tested on: mouse sequence homolog to human KIAA1451 (SEQ ID NO:79); test: Real Time PCR of mouse sequence homolog to human KIAA1451; conditions: mice chronically treated
[5] = tested on: CLZ_40 (TTGT 266) mRNA in striatum and amygdala; test: TOGA analysis of mRNA from brain of morphine-treated mice; assay type: in vivo, mouse
Procedure: For the morphine studies, male C57B1/6J mice (20-28 g) were housed as previously described in Example 1 and divided into the following groups: 1) a control group, in which the mice were subcutaneusly implanted with one placebo pellet upon halothane anaesthesia; 2) an acute morphine group, in which the mice received a morphine intraperitoneal injection of 10 mg/kg; 3) a chronic or tolerant group, in which mice were rendered drug-tolerant and dependent by means of subcutaneous implantation of a single pellet containing 75 mg of morphine free base for 3 days; and 4) a withdrawal group, in which the mice rendered tolerant to morphine were injected intraperitoneally with naltrexone 1 mg/kg. […] Their brains were rapidly removed. The striatum, including the nucleus accumbens, and block of tissues containing the amygdala complex were dissected under microscope and collected in ice-cold RNA extraction buffer.

apoD mRNA [6] = test: In situ hybridization analysis of apoD (CLZ_5) in mouse brain; assay type: in vivo; conditions: clozapine 7.5 mg/kg five days and two weeks: striatum, cortex, globus pallidus, thalamus, white matter tracts; haloperidol: gray or white matter regions
Procedure: In further characterization of CLZ—43, in situ hybridization analysis using an antisense cRNA probe directed against the 3′ end of CLZ—43 were performed to show the pattern of CLZ—43 mRNA expression (FIG. 4A-F). In situ hybridization was performed on free-floating coronal sections (25 μM thick) with an ^35S-labeled, single-stranded antisense cRNA probe of CLZ—43. Coronal sections were hybridized at 55° C for 16 hour with an ^35S-labeled, single-stranded antisense cRNA probe of CLZ—43 at 10^7 cpm/ml. The probe was synthesized from the 3′-ended cDNA TOGA™ clone using the Maxiscript Transcription Kit (Ambion, Austin, Tex.). Excess probe was removed by washing with 2×SSC (I×SSC=[…]) containing 14 mM β-mercaptoethanol (30 minutes), followed by incubation with 4 μg/ml ribonuclease in 0.5 M NaCl/0.05 M EDTA/0.05 M Tris-HCl, pH 7.5, for 1 hour at 37° C. High stringency washes were carried out at 55° C. for 2 hours in 0.5×SSC/50% formamide/0.01 M β-mercaptoethanol, and then at 68° C. for 1 hour in 0.1×SSC/0.01 M β-mercaptoethanol/0.5% sarkosyl. […]
To investigate additional sites of apoD induction, in situ hybridization analysis was performed on brains from saline- and clozapine-treated mice. […] Increases in apoD expression were also detected in white matter tracts, predominantly the corpus callosum (cc), anterior commissure, internal capsule (ic) and optic tract (opt). […]

CLZ_5 (apoD) mRNA = test: Real Time PCR validation of CLZ_5 (apoD); assay type: in vivo, mouse; conditions: clozapine or haloperidol treated mice
[7] = tested on: mRNAs (DSTs) expressed in striatum/nucleus accumbens; test: TOGA analysis of mRNA from striatum/nucleus accumbens of neuroleptic-treated mice (Table 1); conditions: haloperidol experiment in duplicate, average
[8] = tested on: CLZ_43 (SEQ ID NO:37) mRNA; test: Real Time PCR validation of CLZ_43; conditions: clozapine 12 days; haloperidol 14 days; relative to untreated mice

O=C(c1ccc(F)cc1)C1CCN(CCn2c(=O)[nH]c3ccccc3c2=O)CC1 [ketanserin]
apoD mRNA expression in mouse brain (apoD mRNA [1]): apparent upregulation
CLZ_44 expression, Northern [2]: up-regulated

CN1CCN(C2=Nc3cc(Cl)ccc3Nc3ccccc32)CC1 [clozapine]
decrease in expression of CLZ_40, Real Time PCR [3]: 0.37 fold
increase in expression of mouse homolog to human KIAA1451, Real Time PCR [4]: 2.09 fold

CN1CC[C@]23c4c5ccc(O)c4O[C@H]2[C@@H](O)C=C[C@H]3[C@H]1C5 [morphine]
CLZ_40 expression in striatum, TOGA ([5]; acute morphine 10 mg/kg i.p., withdrawal (naltrexone 1 mg/kg in morphine-tolerant mice)): downregulated in withdrawal striatum but not acutely treated striatum
CLZ_40 expression in amygdala, TOGA ([5]; acutely treated (morphine 10 mg/kg i.p., 4 hours)): slightly upregulated
CLZ_40 expression in amygdala, TOGA ([5]; chronically treated (75 mg pellet, 3 days) and withdrawal): increasingly upregulated

O=C(CCCN1CCC(O)(c2ccc(Cl)cc2)CC1)c1ccc(F)cc1 [haloperidol]
apoD mRNA, in situ hybridization (apoD mRNA [6]): did not reveal substantial increases
increase in expression of CLZ_5 (apoD), Real Time PCR (CLZ_5 (apoD) mRNA): 1.75 fold
CLZ_43 TOGA profile for the haloperidol response [7]: 1.08 fold
decrease in expression of CLZ_40, Real Time PCR [3]: 0.66 fold
CLZ_44 expression, Northern [2]: up-regulated
CLZ_43 expression, TOGA and Real Time PCR [8]: not significantly responsive
increase in expression of mouse homolog to human KIAA1451, Real Time PCR [4]: 2.57 fold
